Data reported in the NIST ThermoML archive (doi:10.1016/j.jct.2018.07.026).

Experiments:
[1] = molar heat capacity at constant pressure; conditions: 78.8 kPa, Crystal, DSC
[2] = for Normal melting temperature: Crystal 1, DTA
[3] = Molar enthalpy of transition or fusion; conditions: Crystal 1; DSC

O=C(O)c1cccc([N+](=O)[O-])c1C(=O)O [3-nitro-1,2-benzenedicarboxylic acid]
[1]
Conditions	molar heat capacity at constant pressure [J/K/mol]
295.15 K	242.66
296.15 K	244.28
297.15 K	245.61
298.15 K	246.53
299.15 K	247.02
300.15 K	248.36
301.15 K	249.69
302.15 K	250.75
303.15 K	251.67
304.15 K	252.72
305.15 K	253.35
306.15 K	253.99
307.15 K	254.41
308.15 K	254.83
309.15 K	255.47
310.15 K	256.8
311.15 K	255.96
312.15 K	257.22
313.15 K	258
314.15 K	258.77
315.15 K	259.12
316.15 K	260.18
317.15 K	260.67
318.15 K	261.31
319.15 K	261.94
320.15 K	262.71
321.15 K	263.56
322.15 K	264.19
323.15 K	264.97
324.15 K	265.67
325.15 K	266.44
326.15 K	266.94
327.15 K	267.57
328.15 K	268.41
329.15 K	268.77
330.15 K	269.4
331.15 K	269.96
332.15 K	270.6
333.15 K	271.23
334.15 K	271.79
335.15 K	272.36
336.15 K	273.27
337.15 K	272.43
338.15 K	273.83
339.15 K	274.4
340.15 K	275.03
341.15 K	275.66
342.15 K	276.44
343.15 K	277.14
344.15 K	277.63
345.15 K	278.34
346.15 K	278.97
347.15 K	279.75
348.15 K	280.38
349.15 K	280.94
350.15 K	281.5
351.15 K	281.72
352.15 K	282.07
353.15 K	282.49
354.15 K	282.91
355.15 K	283.48
356.15 K	284.11
357.15 K	284.32
358.15 K	285.02
359.15 K	285.59
360.15 K	286.22
361.15 K	286.71
362.15 K	287.21
363.15 K	287.7
364.15 K	288.12
365.15 K	288.68
366.15 K	289.32
367.15 K	289.95
368.15 K	290.3
369.15 K	290.86
370.15 K	291.29
371.15 K	291.64
372.15 K	292.06
373.15 K	292.62
374.15 K	293.26
375.15 K	293.47
376.15 K	294.1
377.15 K	294.59
378.15 K	295.23
379.15 K	295.72
380.15 K	296.07
381.15 K	296.57
382.15 K	296.99
383.15 K	297.55
384.15 K	297.9
385.15 K	298.39
386.15 K	298.68
387.15 K	299.24
388.15 K	299.73
389.15 K	300.01
390.15 K	300.86
391.15 K	301.21
392.15 K	301.49
393.15 K	301.84
394.15 K	302.2
395.15 K	302.69
396.15 K	303.25
397.15 K	303.74
398.15 K	304.45
399.15 K	305.22
400.15 K	305.71
401.15 K	306.28
402.15 K	306.84
403.15 K	307.33
404.15 K	307.68
405.15 K	308.25
406.15 K	308.74
407.15 K	309.02
408.15 K	309.73
409.15 K	310.15
410.15 K	310.64
411.15 K	311.13
412.15 K	311.56

Conditions	Molar enthalpy of transition or fusion [kcal/mol]	Normal melting temperature [°C]
[2]	–	223.2
[3]	13.2	–

O=C(O)c1ccc([N+](=O)[O-])cc1C(=O)O [4-nitrophthalic acid]
[1]
Conditions	molar heat capacity at constant pressure [J/K/mol]
295.15 K	229.53
296.15 K	230.9
297.15 K	232.06
298.15 K	233.01
299.15 K	233.22
300.15 K	234.59
301.15 K	236.28
302.15 K	237.02
303.15 K	237.97
304.15 K	239.13
305.15 K	239.66
306.15 K	240.19
307.15 K	240.5
308.15 K	240.61
309.15 K	240.93
310.15 K	242.51
311.15 K	241.24
312.15 K	242.62
313.15 K	243.57
314.15 K	244.09
315.15 K	244.83
316.15 K	245.36
317.15 K	246.1
318.15 K	246.2
319.15 K	246.94
320.15 K	248
321.15 K	248.74
322.15 K	249.37
323.15 K	250.22
324.15 K	250.95
325.15 K	251.69
326.15 K	252.22
327.15 K	252.64
328.15 K	253.38
329.15 K	254.02
330.15 K	254.54
331.15 K	255.07
332.15 K	255.71
333.15 K	256.23
334.15 K	256.76
335.15 K	257.5
336.15 K	258.34
337.15 K	256.97
338.15 K	258.45
339.15 K	258.98
340.15 K	259.4
341.15 K	259.93
342.15 K	260.67
343.15 K	261.41
344.15 K	261.72
345.15 K	262.25
346.15 K	262.78
347.15 K	263.52
348.15 K	263.94
349.15 K	264.47
350.15 K	264.99
351.15 K	265.42
352.15 K	266.05
353.15 K	266.26
354.15 K	266.79
355.15 K	267.32
356.15 K	267.74
357.15 K	267.95
358.15 K	268.58
359.15 K	268.9
360.15 K	269.64
361.15 K	269.85
362.15 K	270.27
363.15 K	270.59
364.15 K	271.12
365.15 K	271.86
366.15 K	272.17
367.15 K	272.81
368.15 K	273.23
369.15 K	274.07
370.15 K	274.39
371.15 K	275.02
372.15 K	275.23
373.15 K	275.66
374.15 K	276.29
375.15 K	276.61
376.15 K	277.03
377.15 K	277.56
378.15 K	278.51
379.15 K	279.03
380.15 K	279.56
381.15 K	280.3
382.15 K	280.83
383.15 K	281.57
384.15 K	282.1
385.15 K	282.84
386.15 K	283.26
387.15 K	284.21
388.15 K	284.95
389.15 K	285.37
390.15 K	286.64
391.15 K	287.48
392.15 K	288.22
393.15 K	288.32
394.15 K	289.27
395.15 K	290.33

Conditions	mass density [kg/m3]
[2], 298.15 K, 101.33 kPa, Crystal, Pycnometric method	1647

Conditions	Molar enthalpy of transition or fusion [kcal/mol]	Normal melting temperature [°C]
[2]	–	167
[3]	8.84	–
